pEC50: −log10 of the molar value.
These molecules were tested against T1, RARα (Mus musculus, UniProt P11416) (assay: RAR alpha transactivation assay (gal4-RAR LBD fusion, luciferase reporter, COS-7 cells)). Settings: mouse RAR ligand binding domain; usually three experiments; read-out: α EC50.
T1 construct: expressed in transfected cells; host or cells: COS-7
T1 sequence (P11416 183-417 limits assumed): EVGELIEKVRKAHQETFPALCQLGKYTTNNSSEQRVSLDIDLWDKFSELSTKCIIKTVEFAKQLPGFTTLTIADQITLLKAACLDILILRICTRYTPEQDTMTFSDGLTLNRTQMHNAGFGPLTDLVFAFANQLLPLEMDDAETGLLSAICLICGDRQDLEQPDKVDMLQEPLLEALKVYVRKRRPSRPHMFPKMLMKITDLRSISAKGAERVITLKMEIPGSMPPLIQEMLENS
Type: cell-based
Protocol: (§1) Compounds were tested in transactivation assays at the RAR α, β and γ receptors.
(§2) Transactivation assays for RAR alpha, beta and gamma receptors:
(§3) Transcriptional transactivation assays have been performed with gal4 fusion receptor constructs, created using each of the mouse RAR ligand-binding domains, co-transfected with the pFR-luc (Stratagene) reporter construct in COS-7 cells.
(§4) Briefly, on day one, 96 well plates were seeded with 8000 cells per well then left to recover overnight. On day two, the cells were co-transfected with 100ng of reporter plasmid and 10ng of the appropriate receptor plasmid per well using lipofectamine (Invitrogen). On day three, the lipofectamine containing media was replaced by a DMEM without phenol red, followed by the addition of novel compounds dissolved in 1µl of DMSO to each well’s 100µl total volume. Finally, on day four, the cells were lysed and their luciferase substrate was provided by the BrightGlo reagent (Promega), the plates were then read on the MicroBeta TriLux (Perkin Elmer).
(§5) Data for test compounds are quoted as EC50 values. Where replicate data has been generated the data are quoted as the mean EC50 from the separate experiments.

Row | Compound | pEC50
1 | CCCCOCCOc1nc(-c2ccc(C(=O)O)c(F)c2)sc1C [AC 261066, reference compound] | 7.15
2 | CCOc1c(Cl)cc(C(=O)Nc2ccc(C(=O)O)cc2)cc1Cl [Compound 1, 4-[(3,5-dichloro-4-ethoxybenzoyl)amino]benzoic acid] | 7.34
3 | CCOc1c(Cl)cc(-c2csc(-c3ccc(C(=O)O)cc3)n2)cc1Cl [Compound 2] | 6.62
4 | CCOc1c(Cl)cc(-c2c[nH]c(-c3ccc(C(=O)O)cc3)n2)cc1Cl [Compound 3] | 6.23
5 | CCOc1c(Cl)cc(-c2cnc(-c3ccc(C(=O)O)cc3)o2)cc1Cl [Compound 4] | 7.22
6 | CCOc1c(Cl)cc(-c2noc(-c3ccc(C(=O)O)cc3)n2)cc1Cl [Compound 6] | 7.51
7 | CCOc1c(Cl)cc(-c2nnc(-c3ccc(C(=O)O)cc3)o2)cc1Cl [Compound 7] | 7.24
8 | CC1(C)CCC(C)(C)c2cc(-c3nc(-c4ccc(C(=O)O)cc4)no3)ccc21 [Compound 8] | 7.74
9 | Cc1ccc(C)c2oc(-c3nc(-c4ccc(C(=O)O)cc4)no3)nc12 [Compound 13] | 6.94
10 | Cc1cc(-c2noc(-c3cc4c(C)ccc(C)c4o3)n2)ccc1C(=O)O [Compound 15] | 7.05
11 | Cc1ccc(C)c2oc(-c3nc(-c4ccc(C(=O)O)cc4F)no3)cc12 [Compound 16] | 7.21
12 | Cc1cc(C(=O)O)ccc1-c1noc(-c2cc3c(C)ccc(C)c3o2)n1 [Compound 17] | 6.22

Continued by rising pEC50, values first:

Row | pEC50 | Compound
13 | 7.52 | Cc1ccc(C)c2sc(-c3nc(-c4ccc(C(=O)O)cc4)no3)cc12 [Compound 12]
14 | 7.72 | O=C(O)c1ccc(-c2noc(-c3cc4c(C(F)(F)F)ccc(F)c4o3)n2)cc1 [Compound 11]
15 | 7.74 | CCOc1c(Cl)cc(-c2nc(-c3ccc(C(=O)O)cc3)no2)cc1Cl [Compound 5]
16 | 7.80 | Cc1ccc(C)c2oc(-c3nc(-c4ccc(C(=O)O)c(F)c4)no3)cc12 [Compound 14]
17 | 8.04 | COc1ccc(-c2ccc3cc(C(=O)O)ccc3c2)cc1C1(C)CCCCC1 [CD 2019, reference compound]
18 | 8.40 | CC(C)(C)c1cc(-c2nc(-c3ccc(C(=O)O)cc3)no2)cc(C(C)(C)C)c1 [Compound 9]

Each molecule was assayed against T2, RARβ (Mus musculus, UniProt P22605) (assay: RAR beta transactivation assay (gal4-RAR LBD fusion, luciferase reporter, COS-7 cells)). Settings: EC50 ratio of α to β, mouse; Tables 1 and 4.
T2 construct: expressed in transfected cells; host or cells: COS-7
T2 sequence (P22605 210-444 limits assumed): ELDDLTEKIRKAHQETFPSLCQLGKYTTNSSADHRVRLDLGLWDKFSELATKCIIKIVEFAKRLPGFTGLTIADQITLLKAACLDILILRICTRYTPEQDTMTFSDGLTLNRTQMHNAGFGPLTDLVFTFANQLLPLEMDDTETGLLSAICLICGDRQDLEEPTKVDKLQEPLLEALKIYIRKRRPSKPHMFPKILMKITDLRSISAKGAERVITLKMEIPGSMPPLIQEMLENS
Type: cell-based
Protocol: as §1, §2, §3, §4, §5

Row | Compound | Fold selectivity for β over α
19 | CCCCOCCOc1nc(-c2ccc(C(=O)O)c(F)c2)sc1C [AC 261066, reference compound] | 5.8
20 | CCOc1c(Cl)cc(C(=O)Nc2ccc(C(=O)O)cc2)cc1Cl [Compound 1, 4-[(3,5-dichloro-4-ethoxybenzoyl)amino]benzoic acid] | 0.037
21 | CCOc1c(Cl)cc(-c2csc(-c3ccc(C(=O)O)cc3)n2)cc1Cl [Compound 2] | 2
22 | CCOc1c(Cl)cc(-c2c[nH]c(-c3ccc(C(=O)O)cc3)n2)cc1Cl [Compound 3] | 1.4
23 | CCOc1c(Cl)cc(-c2cnc(-c3ccc(C(=O)O)cc3)o2)cc1Cl [Compound 4] | 2.1
24 | CCOc1c(Cl)cc(-c2nc(-c3ccc(C(=O)O)cc3)no2)cc1Cl [Compound 5] | 12
25 | CCOc1c(Cl)cc(-c2noc(-c3ccc(C(=O)O)cc3)n2)cc1Cl [Compound 6] | 0.28
26 | CCOc1c(Cl)cc(-c2nnc(-c3ccc(C(=O)O)cc3)o2)cc1Cl [Compound 7] | 0.92

Same assay, conditions: EC50 ratio of γ to β, mouse

Row | Compound | Fold selectivity for β over γ
27 | CCCCOCCOc1nc(-c2ccc(C(=O)O)c(F)c2)sc1C [AC 261066, reference compound] | 2.8
28 | CCOc1c(Cl)cc(C(=O)Nc2ccc(C(=O)O)cc2)cc1Cl [Compound 1, 4-[(3,5-dichloro-4-ethoxybenzoyl)amino]benzoic acid] | 24
29 | CCOc1c(Cl)cc(-c2csc(-c3ccc(C(=O)O)cc3)n2)cc1Cl [Compound 2] | 1.3
30 | CCOc1c(Cl)cc(-c2cnc(-c3ccc(C(=O)O)cc3)o2)cc1Cl [Compound 4] | 1.6
31 | CCOc1c(Cl)cc(-c2noc(-c3ccc(C(=O)O)cc3)n2)cc1Cl [Compound 6] | 0.05
32 | CCOc1c(Cl)cc(-c2nnc(-c3ccc(C(=O)O)cc3)o2)cc1Cl [Compound 7] | 2.4
33 | CC1(C)CCC(C)(C)c2cc(-c3nc(-c4ccc(C(=O)O)cc4)no3)ccc21 [Compound 8] | 0.0041
34 | Cc1ccc(C)c2oc(-c3nc(-c4ccc(C(=O)O)cc4)no3)nc12 [Compound 13] | 7.5
35 | Cc1cc(-c2noc(-c3cc4c(C)ccc(C)c4o3)n2)ccc1C(=O)O [Compound 15] | 1.8
36 | Cc1ccc(C)c2oc(-c3nc(-c4ccc(C(=O)O)cc4F)no3)cc12 [Compound 16] | 0.33
37 | Cc1cc(C(=O)O)ccc1-c1noc(-c2cc3c(C)ccc(C)c3o2)n1 [Compound 17] | 0.3

Continued, values first:

Row | Fold selectivity for β over γ | Compound
38 | 2 | Cc1ccc(C)c2sc(-c3nc(-c4ccc(C(=O)O)cc4)no3)cc12 [Compound 12]
39 | 2 | O=C(O)c1ccc(-c2noc(-c3cc4c(C(F)(F)F)ccc(F)c4o3)n2)cc1 [Compound 11]
40 | 19 | CCOc1c(Cl)cc(-c2nc(-c3ccc(C(=O)O)cc3)no2)cc1Cl [Compound 5]
41 | 3.8 | Cc1ccc(C)c2oc(-c3nc(-c4ccc(C(=O)O)c(F)c4)no3)cc12 [Compound 14]
42 | 2.1 | CC(C)(C)c1cc(-c2nc(-c3ccc(C(=O)O)cc3)no2)cc(C(C)(C)C)c1 [Compound 9]

Same assay, conditions: mouse RAR ligand binding domain; usually three experiments; read-out: β EC50

Row | Compound | pEC50
43 | CCCCOCCOc1nc(-c2ccc(C(=O)O)c(F)c2)sc1C [AC 261066, reference compound] | 7.92
44 | CCOc1c(Cl)cc(C(=O)Nc2ccc(C(=O)O)cc2)cc1Cl [Compound 1, 4-[(3,5-dichloro-4-ethoxybenzoyl)amino]benzoic acid] | 5.91
45 | CCOc1c(Cl)cc(-c2csc(-c3ccc(C(=O)O)cc3)n2)cc1Cl [Compound 2] | 6.92
46 | CCOc1c(Cl)cc(-c2c[nH]c(-c3ccc(C(=O)O)cc3)n2)cc1Cl [Compound 3] | 6.37
47 | CCOc1c(Cl)cc(-c2cnc(-c3ccc(C(=O)O)cc3)o2)cc1Cl [Compound 4] | 7.55
48 | CCOc1c(Cl)cc(-c2noc(-c3ccc(C(=O)O)cc3)n2)cc1Cl [Compound 6] | 6.96
49 | CCOc1c(Cl)cc(-c2nnc(-c3ccc(C(=O)O)cc3)o2)cc1Cl [Compound 7] | 7.20
50 | CC1(C)CCC(C)(C)c2cc(-c3nc(-c4ccc(C(=O)O)cc4)no3)ccc21 [Compound 8] | 5.38
51 | Cc1ccc(C)c2oc(-c3nc(-c4ccc(C(=O)O)cc4)no3)nc12 [Compound 13] | 7.96
52 | Cc1cc(-c2noc(-c3cc4c(C)ccc(C)c4o3)n2)ccc1C(=O)O [Compound 15] | 7.85
53 | Cc1ccc(C)c2oc(-c3nc(-c4ccc(C(=O)O)cc4F)no3)cc12 [Compound 16] | 7.96
54 | Cc1cc(C(=O)O)ccc1-c1noc(-c2cc3c(C)ccc(C)c3o2)n1 [Compound 17] | 7.33

The next lines start with the values.

Row | pEC50 | Compound
55 | 8.47 | Cc1ccc(C)c2sc(-c3nc(-c4ccc(C(=O)O)cc4)no3)cc12 [Compound 12]
56 | 8.60 | O=C(O)c1ccc(-c2noc(-c3cc4c(C(F)(F)F)ccc(F)c4o3)n2)cc1 [Compound 11]
57 | 8.82 | CCOc1c(Cl)cc(-c2nc(-c3ccc(C(=O)O)cc3)no2)cc1Cl [Compound 5]
58 | 8.66 | Cc1ccc(C)c2oc(-c3nc(-c4ccc(C(=O)O)c(F)c4)no3)cc12 [Compound 14]
59 | 9.08 | COc1ccc(-c2ccc3cc(C(=O)O)ccc3c2)cc1C1(C)CCCCC1 [CD 2019, reference compound]
60 | 8.85 | CC(C)(C)c1cc(-c2nc(-c3ccc(C(=O)O)cc3)no2)cc(C(C)(C)C)c1 [Compound 9]

Same assay, conditions: relative to 5

Row | Compound | fold loss in potency as a RARβ agonist relative to 5 [fold]
61 | CC1(C)CCC(C)(C)c2cc(-c3nc(-c4ccc(C(=O)O)cc4)no3)ccc21 [Compound 8] | > 2700

Same assay, conditions: relative to amide 1

Row | Compound | fold more potent than 1 as an RARβ agonist [fold]
62 | CCOc1c(Cl)cc(-c2cnc(-c3ccc(C(=O)O)cc3)o2)cc1Cl [Compound 4] | > 40

The molecules below were run against T3, RARγ (Mus musculus, UniProt P18911) (assay: RAR gamma transactivation assay (gal4-RAR LBD fusion, luciferase reporter, COS-7 cells)). Settings: mouse RAR ligand binding domain; Tables 1 and 4; read-out: γ EC50.
T3 construct: expressed in transfected cells; host or cells: COS-7
T3 sequence (P18911 185-419 limits assumed): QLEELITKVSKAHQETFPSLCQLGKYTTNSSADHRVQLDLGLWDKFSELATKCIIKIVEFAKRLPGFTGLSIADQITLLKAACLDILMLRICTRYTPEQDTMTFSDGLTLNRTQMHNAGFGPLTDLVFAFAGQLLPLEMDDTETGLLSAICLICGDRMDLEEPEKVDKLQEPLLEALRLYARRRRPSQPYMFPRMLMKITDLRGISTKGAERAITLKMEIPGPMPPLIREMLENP
Type: cell-based
Protocol: as §1, §2, §3, §4, §5

Row | Compound | pEC50
63 | CCCCOCCOc1nc(-c2ccc(C(=O)O)c(F)c2)sc1C [AC 261066, reference compound] | 7.48
64 | COc1ccc(-c2ccc3cc(C(=O)O)ccc3c2)cc1C1(C)CCCCC1 [CD 2019, reference compound] | 8.80
65 | CCOc1c(Cl)cc(-c2nc(-c3ccc(C(=O)O)cc3)no2)cc1Cl [Compound 5] | 7.55

— publication PMC6419571, “Discovery and lead optimisation of a potent, selective and orally bioavailable RARβ agonist for the potential treatment of nerve injury” (Bioorganic & Medicinal Chemistry Letters, 2019)
